Laboratory results reported in PubChem BioAssay (NCI).
Values joined by “and” are separate entries in the source; they are usually repeats but may differ in a detail not shown here. Equal entries are not always repeated.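 Briefly, cells in 96-well plates were exposed to five compound concentrations for 48 h, and endpoints were estimated by linear interpolation. GI50 is the concentration that inhibits growth by half. TGI: concentration producing complete growth inhibition.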 Where a SMILES comes first, the peptide text is derived from it. [ ]: non-standard residue; d: D form. The star is where a group is joined. ξ: configuration not given here. NMeN = CN[C@@H](CC(N)=O)C(=O)O; NMeV = CN[C@H](C(=O)O)C(C)C; ξNMeV = CNC(C(=O)O)C(C)C; Boc = CC(C)(C)OC(=O)*; ξNMeA = CNC(C)C(=O)O

Key:
Assay in all cases: NCI tumour cell line growth inhibition, 48 h
LOX IMVI melanoma = test system: LOX IMVI melanoma
SNB-19 CNS = test system: SNB-19 CNS
UO-31 renal = test system: UO-31 renal
HCT-116 colon = test system: HCT-116 colon
OVCAR-5 ovarian = test system: OVCAR-5 ovarian
SK-MEL-2 melanoma = test system: SK-MEL-2 melanoma
SNB-75 CNS = test system: SNB-75 CNS
U251 CNS = test system: U251 CNS
SK-OV-3 ovarian = test system: SK-OV-3 ovarian
CCRF-CEM leukemia = test system: CCRF-CEM leukemia

Row | SMILES | GI50 (LOX IMVI melanoma) | TGI (LOX IMVI melanoma) | GI50 (SNB-19 CNS) | TGI (SNB-19 CNS) | GI50 (UO-31 renal) | TGI (UO-31 renal) | GI50 (HCT-116 colon) | TGI (HCT-116 colon) | GI50 (OVCAR-5 ovarian) | TGI (OVCAR-5 ovarian) | GI50 (SK-MEL-2 melanoma) | TGI (SK-MEL-2 melanoma) | GI50 (SNB-75 CNS) | TGI (SNB-75 CNS) | GI50 (U251 CNS) | TGI (U251 CNS) | GI50 (SK-OV-3 ovarian) | TGI (SK-OV-3 ovarian) | GI50 (CCRF-CEM leukemia) | TGI (CCRF-CEM leukemia)
1 | NC(=O)c1ccc2c(-c3ccnc(NCCCO)n3)c(-c3ccc(F)cc3)nn2c1 | > 25 µM | > 25 µM | > 25 µM | > 25 µM | 5.9 µM | > 25 µM | > 25 µM | > 25 µM | > 25 µM | > 25 µM | > 25 µM | > 25 µM | > 10 µM | > 25 µM | > 25 µM | > 25 µM | > 24.2 µM | > 25 µM | > 25 µM | > 25 µM
2 | O=C(O)CC12C3C4C5C3C1C5C42 (configuration not stated) | – | > 100 µM | – | > 100 µM | – | > 100 µM | – | > 100 µM | – | > 100 µM | – | > 100 µM | – | > 100 µM | – | > 100 µM | – | > 100 µM | – | > 100 µM
3 | COc1ccc2c(c1)OC1=C(C(=O)OC1)C2c1cc(OC)c(OC)c(OC)c1 (configuration not stated) | 0.608 µM | > 100 µM | 0.58 µM | > 100 µM | 0.961 µM | > 100 µM | 0.535 µM | > 100 µM | 4.3 µM | > 100 µM | 0.518 µM | > 100 µM | 0.295 µM | > 100 µM | 0.456 µM | > 100 µM | 0.392 µM | > 49.5 µM | 0.315 µM | > 100 µM
4 | C=C(C)CN(CC#N)CC(=C)C | – | > 100 µM | – | > 100 µM | – | > 100 µM | – | > 100 µM | – | > 100 µM | – | > 100 µM | – | > 100 µM | – | > 100 µM | – | > 100 µM | – | > 100 µM
5 | O=C(N/N=C/c1ccccc1Cl)c1ccccc1Nc1ccnc(C(F)(F)F)c1 | 1.33 µM | 5.21 µM | 2.4 µM | > 61.2 µM | 1.92 µM | 6.49 µM | 0.637 µM | 3.27 µM | 2.75 µM | 17.3 µM | 1.79 µM | 5.02 µM | 2.41 µM | 26.7 µM | 1.15 µM | 6.18 µM | 1.43 µM | 5.31 µM | 0.32 µM | 1.76 µM
6 | COC(=O)c1c2c(c(C)[n+]([O-])c1C)C(=O)C=C(NCc1ccc(OC)cc1)C2=O | 0.911 µM | 3.77 µM | 2.12 µM | 5.58 µM | 2.2 µM | 6.83 µM | 2.4 µM | 7.08 µM | 2.3 µM | 6.13 µM | 2.14 µM | 6.64 µM | 5.12 µM | 9.53 µM | 2.05 µM | 5.48 µM | 3.08 µM | 9.3 µM | 1.29 µM | 14 µM
7 | CCOc1ccc(Nc2nc(-c3ccc4c(c3)NC(=O)CO4)cs2)cc1 | 5.33 µM | > 100 µM | 18.9 µM | > 100 µM | 5.47 µM | > 100 µM | 4.01 µM | > 100 µM | > 100 µM | > 100 µM | 3.98 µM | 13.8 µM | 18 µM | > 100 µM | 10.7 µM | > 100 µM | 32.5 µM | > 100 µM | 6.28 µM | > 100 µM
8 | COc1ccc(CNc2c3ccccc3nc3ccc(OC)cc23)cc1 | 1.67 µM | 3.31 µM | 4.14 µM | 16 µM | 1.93 µM | 9.13 µM | 2.55 µM | 11.6 µM | 2.64 µM | 9.52 µM | 2.37 µM | 6.2 µM | 2.19 µM | 8.24 µM | 3.18 µM | 11.2 µM | 4.83 µM | 17.2 µM | 3.09 µM | 13.3 µM
9 | COc1c(Cl)c2c(c(OC)c1OC)-c1ccc(SC)c(=O)cc1[C@@H](NC(=O)OCC(F)(F)F)CC2 | < 0.01 µM | > 100 µM | < 0.01 µM | > 100 µM | – | > 61.9 µM | < 0.01 µM | 0.218 µM | < 0.01 µM | > 100 µM | 4.2 µM | > 100 µM | < 0.01 µM | > 100 µM | < 0.01 µM | > 39.2 µM | < 0.01 µM | > 100 µM | < 0.01 µM | > 100 µM
10 | O=[N+]([O-])c1ccc(N=Nc2c(O)ccc3ccccc23)cc1 | – | > 100 µM | – | > 100 µM | – | > 100 µM | – | > 100 µM | – | > 100 µM | – | > 100 µM | 39.3 µM and > 100 µM | > 100 µM | 22.5 µM and > 100 µM | 67 µM and > 100 µM | 20.2 µM and > 100 µM | > 100 µM | 28.4 µM and > 100 µM | > 100 µM
11 | COC1OC(C)C(O)CC1OS(=O)(=O)c1ccc(C)cc1 (configuration not stated) | – | > 100 µM | – | > 100 µM | – | > 100 µM | – | > 100 µM | – | > 100 µM | – | > 100 µM | – | > 100 µM | – | > 100 µM | – | > 100 µM | – | > 100 µM
12 | O=P([O-])(O)OP(=O)([O-])O.[NH-][C@@H]1CCCC[C@H]1[NH-].[Pt+4] | 15.6 µM and 6.86 µM | > 100 µM | 47.9 µM and 14.9 µM | > 100 µM | 32.2 µM and 4.83 µM | > 100 µM and 30.5 µM | 5.01 µM and 2.61 µM | > 100 µM | > 52.1 µM and 14.5 µM | > 100 µM | > 53.2 µM | > 100 µM | > 100 µM and 34 µM | > 100 µM | 42.4 µM and 8.27 µM | > 100 µM | 98.4 µM and 37.4 µM | > 100 µM | 13 µM and 6.59 µM | > 100 µM
13 | COC(=O)C(C)N(C)C(=O)[C@H](CC(N)=O)N(C)C(=O)[C@@H]1CCCN1C(=O)[C@H](C(C)C)N(C)C(=O)C(C(C)C)N(C)C(=O)[C@@H](NC(=O)OC(C)(C)C)C(C)C (some centres not stated) (Boc-V[ξNMeV][NMeV]P[NMeN][ξNMeA]-OMe) | 13.5 µM | 50 µM and 27 µM | > 100 µM | > 100 µM | > 100 µM | 50 µM and > 100 µM | 39.3 µM | 50 µM and > 100 µM | > 100 µM | > 100 µM | > 100 µM | > 100 µM | – | > 100 µM | > 100 µM | > 100 µM | > 100 µM | > 100 µM | 65.7 µM | > 100 µM
14 | CC1=C2C[C@H]3[C@@H](CC=C4C[C@@H](O)CC[C@@]43C)[C@@H]2CC[C@]12O[C@@H]1C[C@H](C)CN[C@H]1[C@H]2C | 10.5 µM and 16.9 µM | 31.8 µM and 33.5 µM | 22.6 µM and 20.7 µM | 50 µM and 52.6 µM | 11.5 µM and 19 µM | 35.9 µM and 37.2 µM | 10.1 µM and 16.6 µM | 24.7 µM and 31.8 µM | 11.9 µM and 29.4 µM | 50 µM and 89.6 µM | 12.3 µM and 23.4 µM | 38.4 µM and 51.6 µM | > 50 µM and 18.8 µM | > 50 µM and 42.7 µM | 7.96 µM and 18.6 µM | 18.3 µM and 39.6 µM | 14.2 µM and 13.9 µM | 28.2 µM and 34.7 µM | 22.6 µM and 23.4 µM | 50 µM and 80 µM
15 | C1CCN(C2OC3C(COC3N3CCCCC3)OC2OC2CCO[C@@H]2N2CCCCC2)CC1 (some centres not stated) | – | > 100 µM | – | > 100 µM | – | > 100 µM | – | > 100 µM | – | > 100 µM | – | > 100 µM | – | 46.2 µM | – | > 100 µM | – | > 100 µM | – | 40.4 µM
16 | O=S(=O)(c1ccc(N=C2NN=C(c3c[nH]c4ccccc34)CS2)cc1)N1CCOCC1 | 11.2 µM | > 100 µM | 45.6 µM | > 100 µM | 19.1 µM | > 100 µM | 7.35 µM | > 100 µM | 49.1 µM | > 100 µM | 6.22 µM | > 100 µM | 21.6 µM | > 100 µM | 8.48 µM | > 100 µM | > 100 µM | > 100 µM | 4.69 µM | 58.8 µM
